Common to all, as to format: functional
Experiment [1] is described as follows: Cytotoxicity against human lung cancer cells. The settings on record: Cancer cell lines, read-out: ED50 (the source's name).
A further experiment deals with HT-1080. As to the kind of experiment: Cytotoxicity against human HT1080 cells. The settings on record: read-out: ED50 (the source's name).
Another experiment has as its system KB. The experiment can be described thus: Cytotoxicity against human KB cells. The settings on record: read-out: ED50 (the source's name).
Another experiment relates to P388. As to the kind of experiment: Cytotoxicity against mouse P388 cells. The settings on record: read-out: ED50 (the source's name).
A short description of experiment [2]: Cytotoxicity against human melanoma cells. The settings on record: Melanoma cell, read-out: ED50 (the source's name).
Experiment [3] in a line: Cytotoxicity against human breast cancer cells. The settings on record: Cancer cell lines, read-out: ED50 (the source's name).
Experiment [4] in a line: Cytotoxicity against human colon cancer cells. The settings on record: Cancer cell lines, read-out: ED50 (the source's name).

The structures appear in SMILES notation. Values after ≈ are worked out from the molar mass of the structure shown. Some results are limits rather than exact numbers.

The source of these data is ChEMBL document CHEMBL1158924, “Cytotoxic constituents of the bark of Plumeria rubra collected in Indonesia” (1990).

`C[C@H](O)C1=C[C@@]2(C=C[C@@H]3C(C(=O)O)=CO[C@@H](O[C@@H]4O[C@H](CO)[C@@H](O)[C@H](O)[C@H]4O)[C@@H]32)OC1=O`: the EC50 (in experiment [1]; with HT-1080; in the experiment with KB; in the experiment with P388; in experiment [2]; in experiment [3]) was greater than 50 µg/mL in each case. For the same compound, the EC50 in experiment [4] was greater than 50 µg/mL.
Take `COC1=CC(=O)C(OC)=CC1=O`: the EC50 was 1.3 µg/mL (≈ 7.73 µM) in experiment [1]; 3.4 µg/mL (≈ 20.2 µM) with HT-1080; 3.8 µg/mL (≈ 22.6 µM) in the experiment on KB; 2.5 µg/mL (≈ 14.9 µM) with P388; 2.7 µg/mL (≈ 16.1 µM) in experiment [2]; 5.2 µg/mL (≈ 30.9 µM) in experiment [3]. In addition, in experiment [4], the EC50 was 1.4 µg/mL (≈ 8.33 µM).
Regarding `COC(=O)C1=CO[C@@H](O[C@@H]2O[C@H](CO)[C@@H](O)[C@H](O)[C@H]2O)[C@H]2[C@@H]1C=C[C@@]21C=C([C@H](C)OC(=O)/C=C/c2ccc(O)cc2)C(=O)O1`, the EC50 (in experiment [1]; in the experiment on HT-1080; in the experiment with KB; in the experiment with P388; in experiment [2]; in experiment [3]) was greater than 50 µg/mL in each case. Also, the EC50 in experiment [4] was greater than 50 µg/mL.
`COC(=O)[C@@H]1CO[C@H](O)[C@H]2[C@@H]1C=C[C@@]21C=C([C@H](C)O)C(=O)O1`: the EC50 (in experiment [1]; with HT-1080; in the experiment with KB; with P388; in experiment [2]; in experiment [3]) was greater than 50 µg/mL throughout. The EC50 in experiment [4] is greater than 50 µg/mL.
Consider `COC(=O)[C@@H]1CO[C@@H](O)[C@H]2[C@@H]1C=C[C@@]21C=C([C@H](C)O)C(=O)O1`, for which the EC50 (in experiment [1]; in the experiment on HT-1080; with KB; in the experiment with P388; in experiment [2]; in experiment [3]) was greater than 50 µg/mL throughout. In experiment [4], the EC50 was greater than 50 µg/mL.
With `C/C=C1/C(=O)O[C@@]23C=C[C@H]4[C@@H](C(=O)OC)[C@H](O)O[C@@H](O[C@H]12)[C@H]43` [ALLAMANDIN], the EC50 is 0.7 µg/mL (≈ 2.27 µM) in experiment [1]; 0.8 µg/mL (≈ 2.59 µM) in the experiment on HT-1080; 0.4 µg/mL (≈ 1.3 µM) with KB; 0.2 µg/mL (≈ 0.649 µM) with P388; 0.3 µg/mL (≈ 0.973 µM) in experiment [2]; 0.4 µg/mL (≈ 1.3 µM) in experiment [3]. The EC50 in experiment [4] turned out to be 0.3 µg/mL (≈ 0.973 µM).
As for `C/C=C1/C(=O)O[C@@]23C=C[C@H]4C[C@H](O)O[C@@H](O[C@H]12)[C@H]43` [ALLAMCIN], the EC50 in experiment [1] was 1.2 µg/mL (≈ 4.8 µM); in the experiment on HT-1080, 3.1 µg/mL (≈ 12.4 µM); with KB it was 0.3 µg/mL (≈ 1.2 µM); in the experiment on P388 it was 0.2 µg/mL (≈ 0.799 µM); in experiment [2], 0.9 µg/mL (≈ 3.6 µM); in experiment [3], 0.1 µg/mL (≈ 0.4 µM). The EC50 in experiment [4] came to 0.3 µg/mL (≈ 1.2 µM).
On to `C/C=C/C=C1\C=Cc2c(C(=O)OC)coc(=O)c21` [FULVOPLUMIERIN], for which the EC50 in experiment [1] was determined as 3 µg/mL (≈ 12.3 µM); with HT-1080, 3.4 µg/mL (≈ 13.9 µM); in the experiment with KB, 4.6 µg/mL (≈ 18.8 µM); with P388, 2.5 µg/mL (≈ 10.2 µM); in experiment [2], 0.7 µg/mL (≈ 2.87 µM); in experiment [3], 3.5 µg/mL (≈ 14.3 µM). The EC50 in experiment [4] worked out at 1.3 µg/mL (≈ 5.32 µM).
Consider `COc1cc([C@H]2OC[C@H]3[C@@H]2CO[C@@H]3c2cc(OC)c(O[C@@H]3O[C@H](CO)[C@@H](O)[C@H](O)[C@H]3O)c(OC)c2)cc(OC)c1O[C@@H]1O[C@H](CO)[C@@H](O)[C@H](O)[C@H]1O` [LIRIODENDRIN], for which the EC50 in experiment [1] is 6 µg/mL (≈ 8.08 µM); in the experiment with HT-1080, 8.9 µg/mL (≈ 12 µM); with KB it was 6 µg/mL (≈ 8.08 µM); with P388, 2.4 µg/mL (≈ 3.23 µM); in experiment [2], 19 µg/mL (≈ 25.6 µM); in experiment [3] it was 30 µg/mL (≈ 40.4 µM). Moreover, the EC50 in experiment [4] turned out to be 16 µg/mL (≈ 21.5 µM).
With `C/C=C1/C(=O)O[C@]23C=C[C@@H]4C(C(=O)OC)=CO[C@H](O[C@@H]12)[C@@H]43` [PLUMERICIN], the EC50 in experiment [1] was found to be 0.2 µg/mL (≈ 0.689 µM); with HT-1080, 0.2 µg/mL (≈ 0.689 µM); with KB it was 0.3 µg/mL (≈ 1.03 µM); with P388, 1.2 µg/mL (≈ 4.13 µM); in experiment [2] it was 2.8 µg/mL (≈ 9.65 µM); in experiment [3], 0.4 µg/mL (≈ 1.38 µM). Moreover, in experiment [4], the EC50 stood at 0.1 µg/mL (≈ 0.345 µM).
In the case of `COC(=O)C1=CO[C@@H](O[C@@H]2O[C@H](CO)[C@@H](O)[C@H](O)[C@H]2O)[C@H]2[C@@H]1C=C[C@@]21C=C([C@H](C)O)C(=O)O1` [PLUMIERIDE], the EC50 (in experiment [1]; with HT-1080; in the experiment with KB; in the experiment with P388; in experiment [2]; in experiment [3]) was greater than 50 µg/mL each time. The EC50 in experiment [4] is greater than 50 µg/mL.
